Data set [1] can be described thus: Energy of neutralization, pKa of compound. Type of data set: physicochemical.
The nature of data set [2]: Inhibition of GST-tagged DLK (1 to 520 residues)(unknown origin) using MKK4 as substrate preincubated for 60 mins followed by substrate/ATP addition measured after 30 mins by HTRF assay. The arrangement: species or system Homo sapiens. On the technique in general: TR-FRET usually uses a lanthanide donor and a delayed reading to cut background.
Data set [3] addresses Voltage-gated inwardly rectifying potassium channel KCNH2 (Homo sapiens, UniProt Q12809). The data set is described as follows: Inhibition of hERG by patch-clamp method. The class given is toxicity.
Data set [4] can be described thus: Inhibition of human DLK transfected in HEK293-T-REx cells assessed as decrease in JNK phosphorylation incubated for 5 hrs by HTRF assay. Type of data set: cell-based.
Data set [5] can be described thus: Kinetic solubility of compound at pH 6.8. Type of data set: physicochemical. To be noted: buffer, read-out: Kinetic_solubility.
Data set [6] is described as follows: Apparent permeability across apical to basal side in MDCK-MDR1 cells. Type of data set: ADME, cell-based, Canis lupus familiaris. The settings on record: dog.
Data set [7] is described as follows: Intrinsic clearance in human liver microsomes. The class given is ADME, Microsome. The settings on record: read-out: CLH.
In the next data set the target is CYP3A4 (Homo sapiens, UniProt P08684). The data set is described as follows: Time dependent inhibition of CYP3A4 (unknown origin) at 30 uM incubated for 30 mins relative to control. Type of data set: ADME. The settings on record: read-out: TDI.
Data set [8] can be described thus: Efflux ratio in MDCK-MDR1 cells. The class given is ADME, cell-based, Canis lupus familiaris. The settings on record: dog.
Data set [9] can be described thus: Intrinsic clearance in mouse liver microsomes. The class given is ADME, Microsome. The settings on record: read-out: CLH. Background: Microsomes from liver hold many membrane-bound enzymes, among them those of drug oxidation.
Data set [10] is described as follows: Ratio of unbound drug concentration in brain to plasma of mouse at 5 mg/kg. To be noted: brain and plasma, read-out: K(p,uu,brain). The class given is ADME, organism-based.
The nature of data set [11]: Intrinsic clearance in dog liver microsomes. The class given is ADME, Canis lupus familiaris, Microsome. The settings on record: read-out: CLH.

Converted amounts (≈) assume the structure as drawn.

The source of these data is ChEMBL document CHEMBL6096672, “In Silico Enabled Discovery of KAI-11101, a Preclinical DLK Inhibitor for the Treatment of Neurodegenerative Disease and Neuronal Injury” (J Med Chem, 2025).

The pKa is the negative logarithm of the acid dissociation constant. Higher therefore signals a group that holds its proton tightly. The term Ki denotes a measure of affinity in units of concentration, obtained from inhibition or displacement. A high value points to lower affinity. For orientation: IC50 means the midpoint of a concentration-inhibition curve. As usually defined, the Papp A→B is how fast a substance crosses the layer from the apical side. One may read the efflux ratio as a quotient of directional permeabilities that is used to spot active efflux.

Voltage-gated inwardly rectifying potassium channel KCNH2, sequence (Q12809 whole entry): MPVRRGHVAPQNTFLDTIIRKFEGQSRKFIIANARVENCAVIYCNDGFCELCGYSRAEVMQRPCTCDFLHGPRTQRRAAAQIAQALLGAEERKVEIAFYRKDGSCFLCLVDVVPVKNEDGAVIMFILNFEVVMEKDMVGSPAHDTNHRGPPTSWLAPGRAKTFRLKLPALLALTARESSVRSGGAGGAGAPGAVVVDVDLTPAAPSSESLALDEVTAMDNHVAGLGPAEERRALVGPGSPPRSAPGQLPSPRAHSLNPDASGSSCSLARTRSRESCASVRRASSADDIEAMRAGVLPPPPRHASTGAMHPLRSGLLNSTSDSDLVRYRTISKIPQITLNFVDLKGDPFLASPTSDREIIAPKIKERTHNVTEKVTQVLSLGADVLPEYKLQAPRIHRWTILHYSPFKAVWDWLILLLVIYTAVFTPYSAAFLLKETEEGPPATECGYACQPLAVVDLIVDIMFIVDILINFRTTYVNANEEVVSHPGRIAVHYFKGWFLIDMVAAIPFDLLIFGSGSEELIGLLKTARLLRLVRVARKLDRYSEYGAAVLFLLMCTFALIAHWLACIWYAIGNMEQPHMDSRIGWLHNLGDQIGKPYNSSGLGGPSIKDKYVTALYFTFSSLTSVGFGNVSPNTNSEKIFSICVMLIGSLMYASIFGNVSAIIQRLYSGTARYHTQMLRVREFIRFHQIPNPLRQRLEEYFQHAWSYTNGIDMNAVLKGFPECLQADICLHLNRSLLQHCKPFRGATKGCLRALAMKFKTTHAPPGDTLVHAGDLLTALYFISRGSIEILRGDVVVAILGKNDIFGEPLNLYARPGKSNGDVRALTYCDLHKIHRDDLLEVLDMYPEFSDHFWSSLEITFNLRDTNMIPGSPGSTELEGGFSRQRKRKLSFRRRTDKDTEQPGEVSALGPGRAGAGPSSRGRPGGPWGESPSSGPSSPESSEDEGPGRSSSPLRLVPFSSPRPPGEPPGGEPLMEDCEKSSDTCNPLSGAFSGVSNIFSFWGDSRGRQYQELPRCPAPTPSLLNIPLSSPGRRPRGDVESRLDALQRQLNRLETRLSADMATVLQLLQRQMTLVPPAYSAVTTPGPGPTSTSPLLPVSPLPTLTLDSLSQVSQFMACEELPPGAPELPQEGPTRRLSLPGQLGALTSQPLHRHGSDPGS
CYP3A4, sequence (P08684 whole entry): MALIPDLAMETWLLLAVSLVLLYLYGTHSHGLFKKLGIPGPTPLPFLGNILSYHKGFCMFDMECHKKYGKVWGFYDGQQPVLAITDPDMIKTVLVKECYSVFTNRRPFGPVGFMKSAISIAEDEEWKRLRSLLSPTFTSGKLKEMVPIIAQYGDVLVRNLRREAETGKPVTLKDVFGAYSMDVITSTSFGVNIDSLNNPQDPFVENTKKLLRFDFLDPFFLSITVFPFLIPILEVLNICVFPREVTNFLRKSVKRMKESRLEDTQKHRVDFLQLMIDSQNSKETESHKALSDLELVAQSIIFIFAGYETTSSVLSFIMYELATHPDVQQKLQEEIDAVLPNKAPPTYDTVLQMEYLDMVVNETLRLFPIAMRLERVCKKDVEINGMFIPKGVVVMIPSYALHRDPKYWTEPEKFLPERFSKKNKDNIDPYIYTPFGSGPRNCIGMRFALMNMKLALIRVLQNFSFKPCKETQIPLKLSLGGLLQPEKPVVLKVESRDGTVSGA

In turn, `CCc1nc(-c2cnc(N)c(OC(F)(F)F)c2)c2ccc(C3(N4CCOCC4)CC3)cn12` yielded a pKa in [1] of 5.1. The Ki in data set [2] was found to be 0.7 nM. Moreover, the concentration for half-maximal inhibition (IC50) in data set [3] is 17000 nM; in [4], 31 nM.

Turning to `CN1CCCC[C@H]1c1ccc2c(-c3cnc(N)c(C(F)(F)F)c3)ncn2c1`, the pKa in [1] was 8.1. Further, in data set [2], the affinity corresponds to a Ki of 4.3 nM. In addition, the IC50 in data set [3] worked out at 1100 nM; in data set [4] it was 90 nM. Also, in [5], the solubility kinetic amounted to 73 µM (≈ 27.4 µg/mL).

Compound `CN1CCC(c2ccc3c(-c4cnc(N)c(C(F)(F)F)c4)nc([C@@H]4CCCO4)n3c2)CC1` had a Ki in [2] of 0.7 nM. In addition, the IC50 was 800 nM in data set [3] and 22 nM in data set [4].

On to `CCc1nc(-c2cnc(N)c(C(F)(F)F)c2)c2ccc(CN3CCOCC3)cn12`, for which the pKa in data set [1] was determined as 6.1. Further, in [2], affinity was put at a Ki of 4.6 nM. Further, the values for the 50% inhibitory concentration (IC50) in [3] and in data set [4] were 2500 nM and 242 nM, respectively.

As to `CCn1nc(-c2cnc(N)c(OC(F)(F)F)c2)c2ccn(C3CCOCC3)c(=O)c21`, the apparent permeability from apical to basolateral (Papp A→B) in data set [6] worked out at 7.6 ×10⁻⁶ cm/s. Besides, the microsomal CLint turned out to be 8.8 µL/min/mg in [7] and 16 µL/min/mg in data set [9]. Further, the inhibition constant (Ki) in data set [2] came out at 2.8 nM. Also, the inhibition at 0.5 h, 30 µM on CYP3A4 turned out to be 18%. The efflux ratio in data set [8] is 1. Further, the Kp uu in data set [10] came out at 0.43. Moreover, the 50% inhibitory concentration (IC50) in data set [4] is 110 nM.

On to `CCc1nc(-c2cnc(N)c(C(F)(F)F)c2)c2ccc([C@H]3CN(C)CCO3)cn12`, for which the pKa in [1] was found to be 6.8. Further, the inhibition constant Ki in [2] was 2.5 nM. For the same compound, the IC50 in [3] is 6900 nM; in data set [4], 100 nM.

In the case of `CCn1nc(-c2cnc(N)c(OC(F)(F)F)c2)c2ccn([C@H]3CC4(CC4)OC[C@H]3OC)c(=O)c21`, the figures for the microsomal CLint in data set [11], in data set [7] and in data set [9] were 5.4 µL/min/mg, 3.2 µL/min/mg and 9.7 µL/min/mg, respectively. This compound also had a Ki in [2] of 2.2 nM. Besides, the IC50 in [4] stood at 200 nM.

With `CCn1nc(-c2cnc(N)c(OC(F)(F)F)c2)c2ccn([C@H]3CCN(C)C[C@H]3OC(F)(F)F)c(=O)c21`, the microsomal CLint in data set [11] was found to be 21 µL/min/mg; in data set [7] it was 41 µL/min/mg; in data set [9], 66 µL/min/mg. Also, the inhibition constant (Ki) in data set [2] amounted to 1.1 nM. Moreover, the 50% inhibitory concentration (IC50) in [4] was found to be 130 nM.

In data set [1], `CCc1nc(-c2cnc(N)c(C(F)(F)F)c2)c2ccc(C3(F)CCN(C)CC3)cn12` displayed a pKa of 8.4. The compound also came in with an inhibitory constant (Ki) in data set [2] of 0.6 nM. In addition, the IC50 in [3] came to 600 nM; in data set [4], 40 nM.

On to `CCn1nc(-c2cnc(N)c(OC(F)(F)F)c2)c2ccn([C@H]3CCOC[C@H]3OC3CC3)c(=O)c21`, for which the values for the microsomal CLint in [11], in data set [7] and in data set [9] were 21 µL/min/mg, 12 µL/min/mg and 21 µL/min/mg, respectively. The same compound came in with a Ki in data set [2] of 1.3 nM. The Kp uu in data set [10] stood at 0.22. The IC50 in [4] is 95 nM.

For `CCc1nc(-c2cnc(N)c(OC(F)(F)F)c2)c2ccc([C@H]3COCC4(CC4)N3C)cn12`, the affinity in [2], expressed as Ki, was 1.2 nM. For the same compound, the inhibition at 0.5 h, 30 µM at CYP3A4 stood at 67%. The half-maximal inhibitory concentration (IC50) in data set [3] came out at 30000 nM; in data set [4], 104 nM.

With `CCn1nc(-c2cnc(N)c(OC(F)(F)F)c2)c2ccn([C@@H]3CCOC[C@@H]3OC)c(=O)c21`, the microsomal CLint is 96 µL/min/mg in [11], 14 µL/min/mg in data set [7] and 8.3 µL/min/mg in data set [9]. The inhibition constant Ki in data set [2] turned out to be 1.9 nM. For the same compound, the Kp uu in [10] was found to be 0.41. Also, in data set [4], the IC50 turned out to be 94 nM.

On to `CCc1nc(-c2cnc(N)c(C(F)(F)F)c2)c2ccc(C3CCOCC3)cn12`, for which the Papp A→B in data set [6] was 12.3 ×10⁻⁶ cm/s. Moreover, the microsomal CLint was 27 µL/min/mg in [7] and 9 µL/min/mg in data set [9]. In addition, in data set [8], the efflux ratio came out at 0.8. Further, the solubility kinetic in data set [5] was 1 µM (≈ 0.39 µg/mL).

In the case of `CCn1nc(-c2cnc(N)c(OC(F)(F)F)c2)c2ccc([C@H]3COCCN3C)cc21`, the apical-to-basolateral permeability (Papp A→B) in data set [6] stood at 24.1 ×10⁻⁶ cm/s. In addition, the inhibition constant (Ki) in [2] was 1.2 nM. The inhibition at 0.5 h, 30 µM on CYP3A4 is 15%. Further, the efflux ratio in data set [8] is 0.4. Besides, in data set [10], the Kp uu was 0.42. Besides, the IC50 in data set [4] came out at 103 nM.
